Values of other authors as cited in patent US12233110B2, “Compositions comprising pharmaceutically acceptable salts of glucagon-like peptide-1 analogs and uses thereof” (i20 Therapeutics, Inc., priority 2021, dated 2025).

Details: Reference Data

Row | pKa | SMILES
1 | approximately 6 | O=C(O)O [bicarbonate]
2 | approximately 14 | C[N+](C)(C)CCO [choline]
